{"source": "patent US20240390285A1", "about": "“HIGH-DOSE COMPRESSIBLE DOSAGE FORMS MANUFACTURED BY SIMULTANEOUS MELT-COATING AND MELT-GRANULATION OF ACTIVE PHARMACEUTICAL INGREDIENTS” (Rutgers, The State University of New Jersey, priority 2021, published 2024)", "key": {"[1]": {"experiment": "Granule tabletability, […] compactor simulator", "assay_type": "physicochemical", "settings": "600 mg darunavir, 12 mm", "procedure": "This provided an assessment of granule tabletability using a […] compactor simulator, producing 12 mm flat cylindrical tablets having a thickness of approximately 4.6 mm.\nThe processing parameters for the granules in table 8 were: 0.4 kg/h throughput, 300 rpm screw speed, 60° C. processing temperature.\nThe granules were blended with 1% of MgSt and formed into tablets using […] tooling."}, "[2]": {"experiment": "Percent loss-on-drying (LOD)", "assay_type": "physicochemical"}, "[3]": {"settings": "cited from earlier work"}, "[4]": {"settings": "cited from earlier work", "remark": "listed apart in the source"}, "[5]": {"settings": "tablet 96% darunavir + 1% MgSt + 3% CMC-Na, avg. pre-compression force 1.54-1.84 kN"}, "[6]": {"settings": "tablet 99% darunavir + 1% MgSt, avg. pre-compression force 1.67-1.80 kN"}, "[7]": {"settings": "tablet 99% darunavir + 1% MgSt, avg. pre-compression force 9.59-10.16 kN"}}, "note": "Several values for one entry are separate records, joined by “and”; a condition that tells them apart may be missing. Identical values can stand only once. Like-named read-outs stand apart in the source and are kept apart here.", "data": [{"smiles": "CC(C)CN(C[C@@H](O)[C@H](Cc1ccccc1)NC(=O)O[C@H]1CO[C@H]2OCC[C@H]21)S(=O)(=O)c1ccc(N)cc1", "note": "[darunavir, Darunavir]", "values": [{"measurement": "Avg. Crushing Force/Hardness", "setting": "[1]; [5]", "result": 65.3, "unit": "N"}, {"measurement": "Tablet density", "setting": "[1]; [5]", "result": 1.16, "unit": "g/mL"}, {"measurement": "Tensile Strength", "setting": "[1]; [5]", "result": 0.76, "unit": "MPa"}, {"measurement": "Avg. Crushing Force/Hardness", "setting": "[1]; [6]", "result": 42.9, "unit": "N"}, {"measurement": "Tablet density", "setting": "[1]; [6]", "result": 1.14, "unit": "g/mL"}, {"measurement": "Tensile Strength", "setting": "[1]; [6]", "result": 0.49, "unit": "MPa"}, {"measurement": "Avg. Crushing Force/Hardness", "setting": "[1]; [7]", "result": 36.8, "unit": "N"}, {"measurement": "Tablet density", "setting": "[1]; [7]", "result": 1.15, "unit": "g/mL"}, {"measurement": "Tensile Strength", "setting": "[1]; [7]", "result": 0.42, "unit": "MPa"}, {"measurement": "percent loss-on-drying, Avg.", "setting": "[2]; average of 3 samples", "result": 4.42, "unit": "%"}, {"measurement": "percent loss-on-drying (weight loss due to moisture evaporation)", "setting": "[2]; individual Samples 1-3, listed as Pure Darunavir", "result": "4.36% and 4.28% and 4.63%"}]}, {"smiles": "NC(=O)c1nc(F)c[nH]c1=O", "note": "[favipiravir, 6-fluoro-3-oxo-3,4-dihydropyrazine-2-carboxamide]", "values": [{"measurement": "solubility", "setting": "[3]; pH of 2.0-5.5", "result": "only slightly soluble"}, {"measurement": "solubility", "setting": "[3]; pH of 5.5-6.1", "result": "sparingly soluble"}, {"measurement": "dissociation constant, pKa", "setting": "[4]", "result": 5.1}]}]}
